Km data for two compounds are collected here from publication PMC4422685, “A New APEH Cluster with Antioxidant Functions in the Antarctic Hemoglobinless Icefish Chionodraco hamatus” (PLoS ONE, 2015).

In test [1] the target is T1, APEH-1Dl (Dicentrarchus labrax, UniProt A0A8C4H3D3).
T1 construct: native, purified from red blood cells; 80 kDa monomer, about 300 kDa homotetramer; N-terminus 1AAESQPATEE; deposited cDNA covers only 208 aa of the C-terminal part
Description: exopeptidase assay, fluorogenic AMC release. The format is biochemical. The note with it: 15 °C. An excerpt: exopeptidase assay, fluorogenic AMC release on APEH-1Dl

For test [2], the target named is T1, APEH-1Dl. The test is described as follows: exopeptidase (aminopeptidase) assay, pNA release. The format is biochemical. The note with it: 15 °C. An excerpt: exopeptidase (aminopeptidase) assay, pNA release on APEH-1Dl

T1 sequence (A0A8C4H3D3 entry or part of it): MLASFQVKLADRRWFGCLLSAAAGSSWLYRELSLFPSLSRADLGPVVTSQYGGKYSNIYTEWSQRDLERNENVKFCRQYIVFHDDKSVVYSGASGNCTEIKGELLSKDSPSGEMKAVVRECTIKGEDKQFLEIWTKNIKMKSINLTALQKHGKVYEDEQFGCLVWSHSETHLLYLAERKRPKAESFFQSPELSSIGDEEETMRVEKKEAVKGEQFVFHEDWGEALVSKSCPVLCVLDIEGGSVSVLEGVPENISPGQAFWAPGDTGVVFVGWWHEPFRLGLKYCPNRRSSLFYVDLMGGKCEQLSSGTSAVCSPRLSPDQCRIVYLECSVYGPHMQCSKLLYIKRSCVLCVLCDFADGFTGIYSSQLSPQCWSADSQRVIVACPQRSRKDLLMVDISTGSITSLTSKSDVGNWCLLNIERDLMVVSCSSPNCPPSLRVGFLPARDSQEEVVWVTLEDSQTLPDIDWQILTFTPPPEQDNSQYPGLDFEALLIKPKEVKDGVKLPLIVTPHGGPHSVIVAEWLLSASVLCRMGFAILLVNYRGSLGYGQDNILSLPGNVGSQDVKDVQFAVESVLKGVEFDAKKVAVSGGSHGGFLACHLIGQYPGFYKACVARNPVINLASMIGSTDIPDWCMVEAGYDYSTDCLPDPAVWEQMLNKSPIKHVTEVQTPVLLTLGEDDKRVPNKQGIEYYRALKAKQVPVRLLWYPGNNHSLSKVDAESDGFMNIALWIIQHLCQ

For the compound `CSCC[C@H](NC(C)=O)C(=O)Nc1ccc2c(C)cc(=O)oc2c1` [Ac-Met-AMC], the Km (as a rule, the substrate concentration at which the rate is half of its maximum) at APEH-1Dl [1] is 52 µM. For `CC(=O)N[C@@H](C)C(=O)Nc1ccc([N+](=O)[O-])cc1` [Ac-Ala-pNA], on APEH-1Dl [2], the Km was 28 µM.
